From ChEMBL document CHEMBL4138123, “Design, synthesis and biological evaluation of novel pyrazolochalcones as potential modulators of PI3K/Akt/mTOR pathway and inducers of apoptosis in breast cancer cells” (Eur J Med Chem, 2017)

What was measured:
Assay type in all cases: functional
NCI-H522 [1] = assay: Cytotoxicity against human NCI-H522 cells assessed as cell growth at 0.01 uM after 48 hrs by sulforhodamine B assay relative to control; settings: NCI-H522, 48 h, read-out: Activity
HCT-116 = assay: Cytotoxicity against human HCT116 cells assessed as cell growth at 0.1 uM after 48 hrs by sulforhodamine B assay relative to control; settings: HCT-116, 48 h, read-out: Activity
OVCAR-8 [2] = assay: Cytotoxicity against human OVCAR8 cells assessed as cell growth at 100 uM after 48 hrs by sulforhodamine B assay relative to control; settings: OVCAR-8, 48 h, read-out: Activity
MDA-MB-231 = assay: Cytotoxicity against human MDA-MB-231 cells assessed as cell growth at 10 uM after 48 hrs by sulforhodamine B assay relative to control; settings: MDA-MB-231, 48 h, read-out: Activity
SN12C = assay: Cytotoxicity against human SN12C cells assessed as growth inhibition after 48 hrs by sulforhodamine B assay
A498 [3] = assay: Cytotoxicity against human A498 cells assessed as cell growth at 100 uM after 48 hrs by sulforhodamine B assay relative to control; settings: A498, 48 h, read-out: Activity
NCI-H322M = assay: Cytotoxicity against human NCI-H322M cells assessed as cell growth at 10 uM after 48 hrs by sulforhodamine B assay relative to control; settings: read-out: Activity
UACC-62 [4] = assay: Cytotoxicity against human UACC62 cells assessed as cell growth at 10 uM after 48 hrs by sulforhodamine B assay relative to control; settings: UACC-62, 48 h, read-out: Activity
SF-268 = assay: Cytotoxicity against human SF268 cells assessed as cell growth at 0.1 uM after 48 hrs by sulforhodamine B assay relative to control; settings: SF-268, 48 h, read-out: Activity
NCI-H23 = assay: Cytotoxicity against human NCI-H23 cells assessed as cell growth at 100 uM after 48 hrs by sulforhodamine B assay relative to control; settings: NCI-H23, 48 h, read-out: Activity
OVCAR-5 = assay: Cytotoxicity against human OVCAR5 cells assessed as cell growth at 0.01 uM after 48 hrs by sulforhodamine B assay relative to control; settings: OVCAR-5, 48 h, read-out: Activity
ACHN = assay: Cytotoxicity against human ACHN cells assessed as cell growth at 0.1 uM after 48 hrs by sulforhodamine B assay relative to control; settings: read-out: Activity
NCI-H522 [5] = assay: Cytotoxicity against human NCI-H522 cells assessed as cell growth at 100 uM after 48 hrs by sulforhodamine B assay relative to control; settings: NCI-H522, 48 h, read-out: Activity
UACC-257 [6] = assay: Cytotoxicity against human UACC257 cells assessed as cell growth at 100 uM after 48 hrs by sulforhodamine B assay relative to control; settings: UACC-257, 48 h, read-out: Activity
NCI-H226 = assay: Cytotoxicity against human NCI-H226 cells assessed as cell growth at 100 uM after 48 hrs by sulforhodamine B assay relative to control; settings: NCI-H226, 48 h, read-out: Activity
RXF 393 = assay: Cytotoxicity against human RXF393 cells assessed as cell growth at 0.01 uM after 48 hrs by sulforhodamine B assay relative to control; settings: RXF 393, 48 h, read-out: Activity
UACC-257 [7] = assay: Cytotoxicity against human UACC257 cells assessed as growth inhibition after 48 hrs by sulforhodamine B assay; settings: UACC-257, 48 h
PC-3 = assay: Cytotoxicity against human PC3 cells assessed as cell growth at 0.1 uM after 48 hrs by sulforhodamine B assay relative to control; settings: PC-3, 48 h, read-out: Activity
NCI/ADR-RES = assay: Cytotoxicity against human NCI/ADR-RES cells assessed as cell growth at 100 uM after 48 hrs by sulforhodamine B assay relative to control; settings: read-out: Activity
OVCAR-8 [8] = assay: Cytotoxicity against human OVCAR8 cells assessed as cell growth at 10 uM after 48 hrs by sulforhodamine B assay relative to control; settings: OVCAR-8, 48 h, read-out: Activity
K562 [9] = assay: Cytotoxicity against human K562 cells assessed as cell growth at 100 uM after 48 hrs by sulforhodamine B assay relative to control; settings: K562, 48 h, read-out: Activity
KM12 [10] = assay: Cytotoxicity against human KM12 cells assessed as cell growth at 1 uM after 48 hrs by sulforhodamine B assay relative to control; settings: KM12, 48 h, read-out: Activity
HCC 2998 = assay: Cytotoxicity against human HCC2998 cells assessed as growth inhibition after 48 hrs by sulforhodamine B assay; settings: HCC 2998, 48 h
Malme-3M = assay: Cytotoxicity against human MALME-3M cells assessed as cell growth at 0.01 uM after 48 hrs by sulforhodamine B assay relative to control; settings: read-out: Activity
SNB-19 = assay: Cytotoxicity against human SNB19 cells assessed as growth inhibition after 48 hrs by sulforhodamine B assay; settings: SNB-19, 48 h
A498 [11] = assay: Cytotoxicity against human A498 cells assessed as cell growth at 10 uM after 48 hrs by sulforhodamine B assay relative to control; settings: A498, 48 h, read-out: Activity
DU-145 = assay: Cytotoxicity against human DU145 cells assessed as cell growth at 10 uM after 48 hrs by sulforhodamine B assay relative to control; settings: DU-145, 48 h, read-out: Activity
KM12 [12] = assay: Cytotoxicity against human KM12 cells assessed as growth inhibition after 48 hrs by sulforhodamine B assay; settings: KM12, 48 h
UACC-62 [13] = assay: Cytotoxicity against human UACC62 cells assessed as cell growth at 100 uM after 48 hrs by sulforhodamine B assay relative to control; settings: UACC-62, 48 h, read-out: Activity
HL-60(TB) [14] = assay: Cytotoxicity against human HL-60(TB) cells assessed as growth inhibition after 48 hrs by sulforhodamine B assay; settings: HL-60, 48 h
K562 [15] = assay: Cytotoxicity against human K562 cells assessed as cell growth at 0.1 uM after 48 hrs by sulforhodamine B assay relative to control; settings: K562, 48 h, read-out: Activity
HL-60(TB) [16] = assay: Cytotoxicity against human HL-60(TB) cells assessed as cell growth at 10 uM after 48 hrs by sulforhodamine B assay relative to control; settings: HL-60, 48 h, read-out: Activity
MDA-MB-435 = assay: Cytotoxicity against human MDA-MB-435 cells assessed as cell growth at 100 uM after 48 hrs by sulforhodamine B assay relative to control; settings: MDA-MB-435, 48 h, read-out: Activity
Hs-578T [17] = assay: Cytotoxicity against human Hs 578T cells assessed as cell growth at 100 uM after 48 hrs by sulforhodamine B assay relative to control; settings: read-out: Activity
HCT-15 = assay: Cytotoxicity against human HCT15 cells assessed as growth inhibition after 48 hrs by sulforhodamine B assay; settings: HCT-15, 48 h
Hs-578T [18] = assay: Cytotoxicity against human Hs 578T cells assessed as cell growth at 0.01 uM after 48 hrs by sulforhodamine B assay relative to control; settings: read-out: Activity

## COc1ccc(-c2cc(/C=C/C(=O)c3ccc(OC)c(OC)c3)[nH]n2)cc1
NCI-H522 [1]
  growth at 0.01 µM: 102%
HCT-116
  growth at 0.1 µM: 105%
OVCAR-8 [2]
  growth at 100 µM: -66%
MDA-MB-231
  growth at 10 µM: -17%
SN12C
  GI50: 1.64 µM
  LC50: 8.73 µM
  TGI: 3.78 µM
A498 [3]
  growth at 100 µM: -90%
NCI-H322M
  growth at 10 µM: -32%
UACC-62 [4]
  growth at 10 µM: -77%
SF-268
  growth at 0.1 µM: 99%
NCI-H23
  growth at 100 µM: -73%
OVCAR-5
  growth at 0.01 µM: 93%
ACHN
  growth at 0.1 µM: 96%
NCI-H522 [5]
  growth at 100 µM: -81%
UACC-257 [6]
  growth at 100 µM: -100%
NCI-H226
  growth at 100 µM: -43%
RXF 393
  growth at 0.01 µM: 82%
UACC-257 [7]
  GI50: 1.73 µM
  LC50: 7.72 µM
  TGI: 3.65 µM
PC-3
  growth at 0.1 µM: 91%
NCI/ADR-RES
  growth at 100 µM: -22%
OVCAR-8 [8]
  growth at 10 µM: 1%
K562 [9]
  growth at 100 µM: -26%
KM12 [10]
  growth at 1 µM: 70%
HCC 2998
  GI50: 2.02 µM
  LC50: 7.81 µM
  TGI: 3.97 µM
Malme-3M
  growth at 0.01 µM: 89%
SNB-19
  GI50: 1.88 µM
  TGI: 5.28 µM
SNB-19; read-out: LC50 (the source's name)
  CC50: 19.6 µM
A498 [11]
  growth at 10 µM: -57%
DU-145
  growth at 10 µM: -91%
KM12 [12]
  GI50: 1.38 µM
  LC50: 7.01 µM
  TGI: 3.11 µM
UACC-62 [13]
  growth at 100 µM: -100%
HL-60(TB) [14]
  GI50: 2.18 µM
  LC50: > 100 µM
  TGI: 6.4 µM
K562 [15]
  growth at 0.1 µM: 108%
HL-60(TB) [16]
  growth at 10 µM: -21%
MDA-MB-435
  growth at 100 µM: -91%
Hs-578T [17]
  growth at 100 µM: -26%
HCT-15
  GI50: 1.35 µM
  LC50: 9.41 µM
  TGI: 3.56 µM
Hs-578T [18]
  growth at 0.01 µM: 96%
